From publication PMC10041529 (Journal of Medicinal Chemistry, 2023)

Experiments:
[1] = target: T1, GSK3β-mediated phosphorylation of Cyclin D1 (Homo sapiens, UniProt P49841); experiment: Cyclin D1 phosphorylation profile (Western Blot) in transfected HEK293T cells; type: cell-based; settings: HA-Cyclin D1 + FLAG-GSK3β, 10 μM, 3 h
T1 construct: we used only GSK3β (26–383) kinase domain constructs in our cellular studies; expressed in transfected cells; host or cells: HEK293T (pcDNA3.1, transient)

[2] = system: calcineurin/NFAT pathway with overexpressed GSK3β; experiment: NFAT translocation assay (EGFP-NFATc1 imaging) in HEK293T cells; type: cell-based, human; settings: pretreatment 3 h, ionomycin 1 h
Source text: One of the important cellular targets of DYRK1A and GSK3β is the NFAT (Nuclear factor of activated T-cells) transcription factor, which plays a major role in regulating the cell cycle.[52] The calcineurin/NFAT signaling controlled by DYRK1A and GSK3β activity is an important target for neurodegenerative processes and β-cell proliferation. Both kinases inactivate NFAT’s transcription factor by phosphorylation of its nuclear pool, which leads to cytosolic export. […] In unstimulated cells, EGFP-NFAT stayed predominantly in the cytosol, and only after stimulation with ionomycin, the nuclear translocation and accumulation of EGFP-NFAT were observed (Figure 4). Overexpression of any of the kinases blocked the nuclear accumulation of EGFP-NFAT upon cell stimulation, proving the negative regulation of the calcineurin/NFAT pathway by DYRK1A or GSK3β.
EGFP-NFATc1 (green) was cotransfected with either a mock vector, DYRK1A (red), or GSK3β (red) into HEK293T cells.
HEK293T cells were grown on a μ-Slide 8 well (IBIDI) to 50%–70% confluency. The plasmids expressing the desired proteins, mCherry-DYRK1A or mCherry-GSK3β and eGFP-NFATc1, were transiently cotransfected for 24 h with PEI Prime (Sigma-Aldrich). […] Images were collected with a Zeiss Axio Observer 3 fluorescence microscope and analyzed in ZEN Blue edition software.

[3] = target: T2, DYRK1A-mediated phosphorylation of Cyclin D1 (Homo sapiens, UniProt Q13627); experiment: Cyclin D1 phosphorylation profile (Western Blot) in transfected HEK293T cells; type: cell-based; settings: HA-Cyclin D1 + FLAG-DYRK1A, 10 μM, 3 h
T2 construct: expressed in transfected cells; host or cells: HEK293T (pcDNA3.1, transient)

[4] = system: calcineurin/NFAT pathway with overexpressed DYRK1A; experiment: NFAT translocation assay (EGFP-NFATc1 imaging) in HEK293T cells; type: cell-based, human; settings: 5 μM pretreatment 3 h, ionomycin 1 h
[5] = target: T3, DYRK1A kinase domain (126–490) (Homo sapiens, UniProt Q13627); experiment: Microscale thermophoresis (MST) direct binding assay; settings: CK2α vs DYRK1A
T3 construct: The recombinant kinase domains of DYRK1A (126–490) and GSK3β (26–383), both with C-terminal His-tag extension; made in house; host or cells: E. coli LOBSTR

DYRK1A = system: DYRK1A; set-up: method as in PMID 29191878; settings: cell lysates; Table S2 of ref 38; read-out: EC50 (Kinobeads); cited from earlier work
GSK3β = system: GSK3β; set-up: method as in PMID 21870818; settings: at 500 nM; cited from earlier work
DYRK2 = system: DYRK2; set-up: method as in PMID 21870818; settings: at 500 nM; cited from earlier work
CK2α = system: CK2α; set-up: method as in PMID 21870818; settings: at 500 nM; cited from earlier work
CLK3 = system: CLK3; set-up: method as in PMID 21870818; settings: at 500 nM; cited from earlier work
HIPK3 = system: HIPK3; set-up: method as in PMID 21870818; settings: at 500 nM; cited from earlier work

T1 sequence (P49841 26-383): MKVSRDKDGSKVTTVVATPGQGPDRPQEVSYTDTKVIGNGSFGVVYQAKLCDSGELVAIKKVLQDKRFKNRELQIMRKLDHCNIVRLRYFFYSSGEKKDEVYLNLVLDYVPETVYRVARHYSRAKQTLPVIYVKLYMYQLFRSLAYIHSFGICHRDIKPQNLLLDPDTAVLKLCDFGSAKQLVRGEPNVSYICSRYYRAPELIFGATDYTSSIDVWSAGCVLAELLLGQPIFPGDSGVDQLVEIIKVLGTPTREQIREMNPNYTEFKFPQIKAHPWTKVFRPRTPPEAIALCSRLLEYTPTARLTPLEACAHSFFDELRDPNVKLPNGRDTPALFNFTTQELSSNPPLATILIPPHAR

SMILES | effect on GSK3β-mediated Cyclin D1 phosphorylation [1] | nuclear translocation of EGFP-NFAT despite overexpressed GSK3β [2] | effect on DYRK1A-mediated Cyclin D1 phosphorylation [3] | nuclear translocation of EGFP-NFAT despite overexpressed DYRK1A [4] | difference in binding between CK2α and DYRK1A [5] | EC50 (DYRK1A) | inhibition of GSK3β (GSK3β) | inhibition of DYRK2 (DYRK2) | inhibition of CK2α (CK2α) | inhibition of CLK3 (CLK3) | inhibition of HIPK3 (HIPK3)
O=C1Cc2c([nH]c3ccc(Br)cc23)-c2ncccc2N1 [1-azakenpaullone] | same effect | reversed the effect of GSK3β-controlled NFAT cellular localization |  |  |  |  |  |  |  |  | 
COc1ccc2c(c1)[nH]c1c(C)nccc12 [harmine] |  |  | fully abolished | restore the calcineurin/NFAT pathway |  |  |  |  |  |  | 
O=C(O)c1ccc2c(c1)nc(Nc1cccc(Cl)c1)c1ccncc12 [CX-4945, 5-(3-Chlorophenylamino)benzo[c][2,6]naphthyridine-8-carboxylic Acid] |  | reversed the effect of GSK3β-controlled NFAT cellular localization | complete inhibition | restore the calcineurin/NFAT pathway | 5 fold | […] | 55% | more than 95% | more than 90% | more than 90% | more than 90%
